Measured values: ChEMBL document CHEMBL5385961, “In vitro and in vivo evaluation of novel chromeno[2,3-d]pyrimidinones as therapeutic agents for triple negative breast cancer” (RSC Med Chem, 2024)

What was measured:
Assay type in all cases: functional
Conditions in all cases: read-out: Activity
[1] = tested on: Hs-578T; assay: Cytotoxicity against human Hs-578T cells assessed as cell viability at 10 uM incubated for 72 hrs by SRB assay relative to control
[2] = tested on: Hs-578T; assay: Cytotoxicity against human Hs-578T cells assessed as cell viability at 30 uM incubated for 72 hrs by SRB assay relative to control
[3] = tested on: MDA-MB-231; assay: Cytotoxicity against human MDA-MB-231 cells assessed as cell viability at 10 uM incubated for 72 hrs by SRB assay relative to control
[4] = tested on: MDA-MB-231; assay: Cytotoxicity against human MDA-MB-231 cells assessed as cell viability at 30 uM incubated for 72 hrs by SRB assay relative to control
[5] = tested on: MCF7; assay: Cytotoxicity against human MCF7 cells assessed as cell viability at 10 uM incubated for 72 hrs by SRB assay relative to control
[6] = tested on: MCF7; assay: Cytotoxicity against human MCF7 cells assessed as cell viability at 30 uM incubated for 72 hrs by SRB assay relative to control

SMILES | viability at 10 µM [1] [%] | viability at 30 µM [2] [%] | viability at 10 µM [3] [%] | viability at 30 µM [4] [%] | viability at 10 µM [5] [%] | viability at 30 µM [6] [%]
COc1cccc2c1Oc1nc(-c3ccccc3Cl)[nH]c(=O)c1C2 | 81.7 | 72.5 | 92.5 | 90.1 | 74.7 | 58.2
COc1ccccc1-c1nc2c(c(=O)[nH]1)Cc1cc(Cl)ccc1O2 | 78.4 | 38.7 | 88.2 | 65 | 80 | 57.3
COc1ccc2c(c1)Cc1c(nc(-c3cccc(Cl)c3)[nH]c1=O)O2 | 76 | 74.7 | 80.7 | 44.2 | 79.3 | 45.8
O=c1[nH]c(-c2ccc3c(c2)OCO3)nc2c1Cc1cc(Br)ccc1O2 | 86.1 | 78.5 | 85.3 | 77.8 | 83.4 | 83.1
COc1cccc2c1OC1=NC(c3ccc4c(c3)OCO4)NC(=O)C1=C2 (centres undefined) | 100 | 96.5 | 88.2 | 62.2 | 84.9 | 82.1
COc1cccc2c1Oc1nc(-c3ccccc3)[nH]c(=O)c1C2 | 91.1 | 75.8 | 91.8 | 89.2 | 91.2 | 88.5
COc1cccc2c1Oc1nc(-c3ccc(C)cc3)[nH]c(=O)c1C2 | 86.8 | 63.3 | 99.2 | 91.1 | 78.5 | 77.2
COc1ccc2c(c1)Cc1c(nc(-c3ccccc3OC)[nH]c1=O)O2 | 87.5 | 65.6 | 85 | 65.9 | 90.6 | 70.4
COc1cccc2c1Oc1nc(-c3ccco3)[nH]c(=O)c1C2 | 99.8 | 90.7 | 92.8 | 85.8 | 98.9 | 100
COc1cccc2c1Oc1nc(-c3cccc(Br)c3)[nH]c(=O)c1C2 | 66.8 | 40.6 | 92 | 80.8 | 78.4 | 52.4
COc1ccccc1-c1nc2c(c(=O)[nH]1)Cc1cccc(OC)c1O2 | 86 | 80.2 | 82.9 | 63.6 | 85.5 | 54.8
Cc1ccc2c(c1)Cc1c(nc(-c3ccccc3)[nH]c1=O)O2 | 96 | 73.3 | 90.1 | 65.6 | 85.8 | 73.1
COc1ccc(OC)c(-c2nc3c(c(=O)[nH]2)Cc2cccc(OC)c2O3)c1 | 72.7 | 74 | 87.1 | 88.4 | 77.7 | 76.6
COc1cccc2c1Oc1nc(-c3ccc(F)cc3)[nH]c(=O)c1C2 | 97.5 | 84.4 | 105 | 97.8 | 88.8 | 82.9
COc1cccc(-c2nc3c(c(=O)[nH]2)Cc2cc(OC)ccc2O3)c1 | 88 | 77 | 69.3 | 41.2 | 73.1 | 49.8
CCC(CC)C1N=C2Oc3c(cccc3OC)C=C2C(=O)N1 (centres undefined) | 98.4 | 83 | 85.8 | 64.1 | 85.9 | 84.8
Cc1cccc2c1Oc1nc(-c3ccccc3)[nH]c(=O)c1C2 | 81.3 | 62.1 | 32.6 | 15.9 | 34.7 | 23.8
COc1cccc2c1Oc1nc(-c3cccc(O)c3)[nH]c(=O)c1C2 | 75.9 | 67.3 | 102 | 102 | 38 | 25.4
CC(C)(C)c1cc(-c2nc3c(c(=O)[nH]2)Cc2ccccc2O3)cc(C(C)(C)C)c1O | 80.2 | 81 | 95.1 | 95.2 | 97.7 | 94.7
COc1cc(OC)c(C2N=C3Oc4ccc(Br)cc4C=C3C(=O)N2)c(OC)c1 (centres undefined) | 95.2 | 68.6 | 80.6 | 64.4 | 90.6 | 76.2
COc1cc(OC)c(C2N=C3Oc4c(cccc4OC)C=C3C(=O)N2)c(OC)c1 (centres undefined) | 94.8 | 86 | 83.6 | 77.4 | 99.9 | 91.8
COc1cccc2c1C(=O)c1c(O)c3c(c(O)c1C2=O)C[C@@](O)(C(=O)CO)C[C@@H]3O[C@H]1C[C@H](N)[C@H](O)[C@H](C)O1 [DOXORUBICIN] | 8.65 | 7.61 | 6.72 | 5.85 | 24.5 | 28.8
COc1ccc(OC)c(-c2nc3c(c(=O)[nH]2)Cc2cc(Cl)ccc2O3)c1 | 91.7 | 92 | 91 | 78 | 69.2 | 62.6
COc1cccc2c1Oc1nc(/C=C/c3ccccc3)[nH]c(=O)c1C2 | 99.8 | 97.9 | 99.2 | 92.5 | 84.7 | 56.7
N#CC1=C(/N=C/Nc2ccccc2)Oc2ccc(Br)cc2C1CC(=O)c1ccccc1 (centres undefined) | 96.1 | 89.9 | 98 | 96 | 74.6 | 37.9
O=c1[nH]c(-c2ccccc2)nc2c1Cc1ccccc1O2 | 76.3 | 65.4 | 69.3 | 53.2 | 88.5 | 79.2
COc1cccc2c1Oc1nc(-c3cccc(Cl)c3)[nH]c(=O)c1C2 | 72 | 49.9 | 80.8 | 76.9 | 69.8 | 40.4
COc1ccc2c(c1)Cc1c(nc(-c3cc(OC)ccc3OC)[nH]c1=O)O2 | 95.9 | 96.5 | 60.9 | 49.7 | 63.7 | 57.8
COc1cccc2c1Oc1nc(-c3ccc(Br)cc3)[nH]c(=O)c1C2 | 97.7 | 84.4 | 83.7 | 80.4 | 83.8 | 75.3
